In PMC2289708 (The Journal of Cell Biology, 1992):

Tests used:
F-actin in human PMNs = experiment: F-actin level in PMNs, rhodamine phalloidin binding; format: cell-based
[1] = ref Safer et al., 1990; cited from earlier work
[2] = test system: platelet actin (cell actin); settings: ref Weber et al., 1992, cited from earlier work
muscle G-actin [3] = settings: cited from earlier work
G-actin = experiment: Non-denaturing PAGE and immunoblot of PMN supernatants for G-actin/TB4 complex; format: binding, human
[4] = format: in vitro ADME, human; settings: lysed on ice for 5 min before addition of PCA, relative to samples receiving PCA <30 s after lysis; HPLC; not shown
muscle G-actin [5] = experiment: TB4 binding to muscle G-actin from rates of pyrenyl actin elongation; design: species or system rabbit
[6] = test system: G-actin/TB4 complex in human PMNs; experiment: Change in G-actin/TB4 complex band after stimulation of PMNs; format: cell-based; settings: 10^-7 M FNLLP, 30 s
pyrenyl G-actin = pyrenyl G-actin (Oryctolagus cuniculus, UniProt P68135); format: biochemical, rabbit

With `C=C1[C@@H](C)[C@H]2[C@H](Cc3ccccc3)NC(=O)[C@]23OC(=O)/C=C/[C@H](O)CCC[C@@H](C)C/C=C/[C@H]3[C@@H]1O` [cytochalasin B] the “effect on chemoattractant induced increase in F-actin” value (F-actin in human PMNs; cytochalasin B with FNLLP, 2 μM in Fig. 3a) was “blocks the chemoattractant induced in- crease in F-actin”.
In the case of Thymosin beta 4 [TB4], the activity after boiling [1] is listed as “remains active after boiling”, the Kd ([2]; read-out: Kd for platelet / cell actin) is listed as 0.6 µM and the “affinity for nonmuscle vs muscle actin” value [2] is listed as “approximately threefold higher”. The Kd (muscle G-actin [3]; read-out: Kd for muscle actin (literature), ref Weber et al., 1992) was 2 µM, the “kon (literature)” value (muscle G-actin [3]; ref Goldschmidt-Clermont et al. (1992)) was 0.75 s⁻¹ and the “effect of PIPs on binding” value (muscle G-actin [3]; ref Janmey et al., 1992) was “nor affected by PIPs”. The “binding to pyrene vs unlabeled muscle actin” value (muscle G-actin [3]; ref Weber et al., 1992) was “binds equally well to pyrene and unlabeled muscle actin”, the “calcium sensitivity of binding” value (muscle G-actin [3]; ref Weber et al., 1992) was “neither calcium sensitive” and the “PMN band antibody reactivity (actin and TB4)” value (G-actin; immunoblot of band with mobility similar to actin/TB4 complex) was “reacts positively with antibodies to both actin”. The “fraction of G-actin migrating like G-actin/T beta 4 complex” value (G-actin; supernatants from resting PMNs, 7.5% non-denaturing gels) was “a large fraction of G-actin in supernatants prepared from resting PMNs has a mobility similar to the G- actin/T beta 4 complex”, the “TB4 remaining in cell lysate” value [4] was 95% and the “kinetics of bovine spleen T beta 4 binding to muscle pyrenyl G-actin” value (muscle G-actin [5]) was “sufficiently rapid to accommodate the rapid changes in actin polymerization and depolymerization observed in vivo”. The “effect of preincubation with TB4 on polymerization rate” value (muscle G-actin [5]; 2 μM pyrenyl G-actin with 5 μM TB4, F-actin nuclei) was “slower rate of polymerization”, the “time for slope to shift to that of preincubated samples” value (muscle G-actin [5]; 5 μM TB4 added after polymerization started, mixing interval, all n = 7 samples) was ≤ 6 s and the “kon (rate constant of binding), minimal” value (muscle G-actin [5]; bovine spleen TB4 5 μM, 2 μM pyrenyl muscle G-actin, Equation 1, SD 0.003, n = 7) was > 45000 M⁻¹ s⁻¹. The “koff, minimal” value (muscle G-actin [5]; from Kd and minimal kon, muscle actin) was “greater than 0.09 s-1”.
For “formylnorleucyileucylphenylalanine [FNLLP]”, the “TB4 staining of actin/TB4 band after stimulation, anti-TB4 immunoblot” value ([6]; 23°C, n = 6) was 53 + 9 % of the resting cell level, the “intensity of G-actin/TB4 band, Coomassie blue” value ([6]; non-denaturing gel) was “reduces the intensity of the G-actin/T~4 band” and the “slope of pyrenyl actin polymerization in stimulated cell supernatant” value (pyrenyl G-actin; Fig. 4, R2 = 0.777, resting supernatant slope 13.6, 10^-7 M FNLLP, 30 s) was 6.1 fluorescent U/min. For the same molecule, the “inhibitory activity of boiled supernatants, resting vs stimulated” value (pyrenyl G-actin; boiled supernatants from resting and FNLLP-stimulated cells, not shown) was “approximately equal inhibitory activity”, the “rate of pointed end polymerization in stimulated supernatant (Fig. 4)” value (pyrenyl G-actin; single experiment of Fig. 4, 10^-7 M FNLLP, 30 s) was 45 % of the rate in the resting supernatant and the F-actin upon stimulation (F-actin in human PMNs; 10^-7 M FNLLP, 30 s, n = 6) was 200 + 42 % of the amount in resting cel. The “F-actin of stimulated vs resting cells (Fig. 4 experiment)” value (F-actin in human PMNs; 10^-7 M FNLLP, 30 s, not shown) was “approximately twice” and the “F-actin increase upon stimulation (Fig. 3a)” value (F-actin in human PMNs; 10^-7 M FNLLP, 30 s, single representative experiment of Fig. 3) was 1.5 fold.
